Results from US8247211B2, “Glycopeptide antibiotics” (American Cyanamid Company, priority 2001, dated 2012).
Converted amounts (≈) assume the structure as drawn.

Columns and labels:
[1] = tested on: Staphylococcus aureus-SMITH (GC 4543); assay: Acute lethal infection in mice (ED50); assay type: in vivo; details: female CD-1 mice, intraperitoneal challenge, intravenous dose 30 min. after infection, 7 day survival ratios
Outline: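 IP bacterial challenge, female CD-1 mice; inoculum lethal to untreated controls in 24-48 hr. IV dosing in saline or 5% dextrose 30 min post-infection, 5 mice/dose. ED50 from 7-day survival, 3 tests pooled.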

Staphylococcus sp. = assay: In vitro antibacterial evaluation: minimum inhibitory concentration (MIC), broth dilution method; assay type: cell-based; details: broth dilution, 18 hours at 35° C.
Outline: (§1)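 MIC by broth dilution in Mueller-Hinton II medium following NCCLS M7-A2. Inoculum was 5×10^5 CFU/mL and antibiotic was tested over 64-0.06 μg/mL. Gram-positive panel included clinical isolates resistant to methicillin, penicillin and/or vancomycin.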

Escherichia coli = assay: as above; assay type: cell-based
Outline: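 Values are minimum inhibitory concentrations, meaning the smallest antibiotic concentration that stops growth of the organism. They come from broth dilution in Muller-Hinton II […] per NCCLS guidance (M7-A2), using 5×10^5 CFU/mL and concentrations from 64 to 0.06 μg/mL.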

Streptococcus sp. = assay: as above; assay type: cell-based
Outline: as §1

Enterococcus sp. = assay: as above; assay type: cell-based
Outline: as §1

[2] = broth dilution, inoculum 5×10^5 CFU/mL, 18 hours at 35° C.

Cc1ccc(Oc2ccc(C3OCC4OC(OC5C(CO)OC(Oc6ccc(CC7NC(=O)C(C(C)c8ccccc8)NC(=O)CNC(=O)C(CO)NC(=O)C(C(O)C8CNC(=N)N8C8OC(CO)C(O)C(O)C8O)NC(=O)C(C(O)C8CNC(=N)N8)NC7=O)cc6)C(O)C5O)C(O)C(O)C4O3)cc2)cc1 (stereo not drawn) [Example 174, Cyclo[glycyl-β-methylphenylalanyl-O-[4-O-[4,6-O-[4-(4-methylphenoxy)benzylidene]hexopyranosyl]hexopyranosyl]tyrosyl-3-(2-iminoimidazolidin-4-yl)seryl-3-(3-hexopyranosyl-2-iminoimidazolidin-4-yl)serylseryl]]
median effective dose (ED50), Staphylococcus aureus-SMITH (GC 4543) [1]: 0.08 mg/kg
MIC Coagulase Negative Staphylococcus (GC 4547) (Staphylococcus sp.; 5×10^5 CFU/mL): 2 µg/mL (≈ 1.34 µM)
MIC Coagulase Negative Staphylococcus (GC 4548) (Staphylococcus sp.; 5×10^5 CFU/mL): 0.5 µg/mL (≈ 0.336 µM)
MIC Coagulase Negative Staphylococcus (GC 4549) (Staphylococcus sp.; 5×10^5 CFU/mL): 1 µg/mL (≈ 0.671 µM)
MIC Coagulase Negative Staphylococcus (GC 4551) (Staphylococcus sp.; 5×10^5 CFU/mL): 1 µg/mL (≈ 0.671 µM)
MIC Coagulase Negative Staphylococcus (GC 6257) (Staphylococcus sp.; 5×10^5 CFU/mL): 0.5 µg/mL (≈ 0.336 µM)
MIC Staphylococcus aureus (ATCC 29213) (Staphylococcus sp.; 5×10^5 CFU/mL): 2 µg/mL (≈ 1.34 µM)
MIC Staphylococcus aureus (GC 1131) (Staphylococcus sp.; 5×10^5 CFU/mL): 1 µg/mL (≈ 0.671 µM)
MIC Staphylococcus aureus (GC 3051) (Staphylococcus sp.; 5×10^5 CFU/mL): 2 µg/mL (≈ 1.34 µM)
MIC Staphylococcus aureus (GC 3053) (Staphylococcus sp.; 5×10^5 CFU/mL): 2 µg/mL (≈ 1.34 µM)
MIC Staphylococcus aureus (GC 4541) (Staphylococcus sp.; 5×10^5 CFU/mL): 2 µg/mL (≈ 1.34 µM)
MIC Staphylococcus aureus (GC 4542) (Staphylococcus sp.; 5×10^5 CFU/mL): 2 µg/mL (≈ 1.34 µM)
MIC Staphylococcus aureus (GC 4544) (Staphylococcus sp.; 5×10^5 CFU/mL): 1 µg/mL (≈ 0.671 µM)
MIC Staphylococcus aureus (GC 4545) (Staphylococcus sp.; 5×10^5 CFU/mL): 1 µg/mL (≈ 0.671 µM)
MIC Staphylococcus aureus-SMITH (GC 4543) (Staphylococcus sp.; 5×10^5 CFU/mL): 1 µg/mL (≈ 0.671 µM)
MIC Staphylococcus haemolyticus (GC 4546) (Staphylococcus sp.; 5×10^5 CFU/mL): 2 µg/mL (≈ 1.34 µM)
MIC Staphylococcus aureus (ATCC 29213) (Staphylococcus sp.; strain ATCC 29213): 2 µg/mL (≈ 1.34 µM)
MIC Staphylococcus aureus (GC 1131) (Staphylococcus sp.; strain GC 1131): 1 µg/mL (≈ 0.671 µM)
MIC Staphylococcus aureus (GC 3051) (Staphylococcus sp.; strain GC 3051): 2 µg/mL (≈ 1.34 µM)
MIC Staphylococcus aureus (GC 3053) (Staphylococcus sp.; strain GC 3053): 2 µg/mL (≈ 1.34 µM)
MIC Staphylococcus aureus (GC 4541) (Staphylococcus sp.; strain GC 4541): 2 µg/mL (≈ 1.34 µM)
MIC Staphylococcus aureus (GC 4542) (Staphylococcus sp.; strain GC 4542): 2 µg/mL (≈ 1.34 µM)
MIC Staphylococcus aureus (GC 4544) (Staphylococcus sp.; strain GC 4544): 1 µg/mL (≈ 0.671 µM)
MIC Staphylococcus aureus (GC 4545) (Staphylococcus sp.; strain GC 4545): 1 µg/mL (≈ 0.671 µM)
MIC Escherichia coli (ATCC 25922) (Escherichia coli; strain ATCC 25922): >64 µg/mL
MIC Escherichia coli (GC 4559) (Escherichia coli; strain GC 4559): >64 µg/mL
MIC Escherichi coli (GC 4560) (Escherichia coli; strain GC 4560): 4 µg/mL (≈ 2.69 µM)
MIC Streptococcus agalactiae (GC 4564) (Streptococcus sp.; [2]): <0.06 µg/mL
MIC Streptococcus pneumoniae (ATCC 6301) (Streptococcus sp.; [2]): <0.06 µg/mL
MIC Streptococcus pneumoniae (GC 1894) (Streptococcus sp.; [2]): <0.06 µg/mL
MIC Streptococcus pneumoniae (GC 4565) (Streptococcus sp.; [2]): <0.06 µg/mL
MIC Streptococcus pyogenes (GC 4563) (Streptococcus sp.; [2]): <0.06 µg/mL
MIC Streptococcus pneumoniae (ATCC 6301) (Streptococcus sp.; strain ATCC 6301): <0.06 µg/mL
MIC Streptococcus pneumoniae (GC 1894) (Streptococcus sp.; strain GC 1894): <0.06 µg/mL
MIC Streptococcus pyogenes (GC 4563) (Streptococcus sp.; strain GC 4563): <0.06 µg/mL
MIC Streptococcus agalactiae (GC 4564) (Streptococcus sp.; strain GC 4564): <0.06 µg/mL
MIC Streptococcus pneumoniae (GC 4565) (Streptococcus sp.; strain GC 4565): <0.06 µg/mL
MIC Enterococcus avium (GC 4558) (Enterococcus sp.; [2]): 2 µg/mL (≈ 1.34 µM)
MIC Enterococcus faecalis (ATCC 29212) (Enterococcus sp.; [2]): 2 µg/mL (≈ 1.34 µM)
MIC Enterococcus faecalis (GC 2242) (Enterococcus sp.; [2]): 2 µg/mL (≈ 1.34 µM)
MIC Enterococcus faecalis (GC 2691) (Enterococcus sp.; [2]): 2 µg/mL (≈ 1.34 µM)
MIC Enterococcus faecalis (GC 3059) (Enterococcus sp.; [2]): 2 µg/mL (≈ 1.34 µM)
MIC Enterococcus faecalis (GC 4552) (Enterococcus sp.; [2]): 1 µg/mL (≈ 0.671 µM)
MIC Enterococcus faecalis (GC 4553) (Enterococcus sp.; [2]): 1 µg/mL (≈ 0.671 µM)
MIC Enterococcus faecalis (GC 4554) (Enterococcus sp.; [2]): 1 µg/mL (≈ 0.671 µM)
MIC Enterococcus faecalis (GC 6189) (Enterococcus sp.; [2]): 2 µg/mL (≈ 1.34 µM)
MIC Enterococcus faecium (GC 2243) (Enterococcus sp.; [2]): 1 µg/mL (≈ 0.671 µM)
MIC Enterococcus faecium (GC 4556) (Enterococcus sp.; [2]): 1 µg/mL (≈ 0.671 µM)
MIC Enterococcus faecium (GC 4557) (Enterococcus sp.; [2]): 2 µg/mL (≈ 1.34 µM)
MIC Enterococcus faecalis (ATCC 29212) (Enterococcus sp.; strain ATCC 29212): 2 µg/mL (≈ 1.34 µM)
MIC Enterococcus faecalis (GC 2242) (Enterococcus sp.; strain GC 2242): 2 µg/mL (≈ 1.34 µM)
MIC Enterococcus faecium (GC 2243) (Enterococcus sp.; strain GC 2243): 1 µg/mL (≈ 0.671 µM)
MIC Enterococcus faecalis (GC 2691) (Enterococcus sp.; strain GC 2691): 2 µg/mL (≈ 1.34 µM)
MIC Enterococcus faecalis (GC 3059) (Enterococcus sp.; strain GC 3059): 2 µg/mL (≈ 1.34 µM)
MIC Enterococcus faecalis (GC 4552) (Enterococcus sp.; strain GC 4552): 1 µg/mL (≈ 0.671 µM)
MIC Enterococcus faecalis (GC 4553) (Enterococcus sp.; strain GC 4553): 1 µg/mL (≈ 0.671 µM)
MIC Enterococcus faecalis (GC 4554) (Enterococcus sp.; strain GC 4554): 1 µg/mL (≈ 0.671 µM)
MIC Enterococcus faecium (GC 4556) (Enterococcus sp.; strain GC 4556): 1 µg/mL (≈ 0.671 µM)
MIC Enterococcus faecium (GC 4557) (Enterococcus sp.; strain GC 4557): 2 µg/mL (≈ 1.34 µM)
MIC Enterococcus avium (GC 4558) (Enterococcus sp.; strain GC 4558): 2 µg/mL (≈ 1.34 µM)
MIC Enterococcus faecalis (GC 6189) (Enterococcus sp.; strain GC 6189): 2 µg/mL (≈ 1.34 µM)
